Data from article PMC9586930, “Molecular insights into the distinct signaling duration for the peptide-induced PTH1R activation” (Nature Communications, 2022).
Positions count from the first letter of the chain named.

Assays:
Details in all cases: for ΔpEC50±SEM: relative to WT, n = 3 in triplicate; for ΔpEC50±SEM / Span±SEM: mean ± SEM; for Span±SEM: window between maximal response (Emax) and vehicle, n = 3
[1] = biological target: T1, PTH1R Y191A mutant (Homo sapiens, UniProt Q03431, Y191A); assay: cAMP accumulation assay (GloSensor), PTH1R Y191A; assay type: cell-based
T1 construct: a flag-tag was fused to the N terminal of full-length PTH1R (WT or mutant); expressed in transfected cells; host or cells: HEK293T
T1 sequence (Q03431 27-593 Y191A): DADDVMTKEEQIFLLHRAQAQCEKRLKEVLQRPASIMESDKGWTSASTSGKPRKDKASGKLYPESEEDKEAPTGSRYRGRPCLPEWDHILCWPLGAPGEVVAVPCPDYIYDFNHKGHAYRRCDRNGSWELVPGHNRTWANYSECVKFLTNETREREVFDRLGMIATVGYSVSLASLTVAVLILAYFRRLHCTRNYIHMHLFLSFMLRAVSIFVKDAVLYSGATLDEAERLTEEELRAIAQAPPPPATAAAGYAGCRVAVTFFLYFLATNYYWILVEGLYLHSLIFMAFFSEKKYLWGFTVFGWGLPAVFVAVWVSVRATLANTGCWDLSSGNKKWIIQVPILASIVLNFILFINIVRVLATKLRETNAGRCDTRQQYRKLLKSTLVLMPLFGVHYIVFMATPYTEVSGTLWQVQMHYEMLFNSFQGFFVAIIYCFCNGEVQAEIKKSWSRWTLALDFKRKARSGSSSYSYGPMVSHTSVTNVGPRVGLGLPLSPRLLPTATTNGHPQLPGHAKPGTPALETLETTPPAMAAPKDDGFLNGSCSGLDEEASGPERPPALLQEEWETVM
Description: (§1) Human embryonic kidney 293 T (HEK293T, ATCC: CRL-1573) cells were transfected with a plasmid mixture consisting of pcDNA3.1-flag-PTH1R (WT or mutants) and the cAMP biosensor GloSensor-22F (Promega) at a ratio of 2:1 (see Supplementary Table 7 for a list of primers used in this study). After 24 h, transfected cells were plated onto a 384-well plate, which was treated with cell adherent reagent (Applygen) in advance. After another 12 h, cells were treated with Hank’s balanced salt solution for starvation and then incubated in CO2-independent media containing 4% GloSensor cAMP Reagent (Promega) at a volume of 5 μl per well and incubated for 20 min at RT before measurements for baseline luminescence (Spark Multimode microplate reader, TECAN). Next, test ligands were added at different concentrations from 10^−6 to 10^−13 M before second measurement. Finally, data were normalized to 100% of the maximal PTH (1-34) response for WT PTH1R using a sigmoidal dose-response in GraphPad Prism.
(§2) Statistical analyses were performed on at least three individual datasets and analysed using GraphPad Prism software. Bars represent differences in the calculated agonist potency (pEC50) and maximum agonist response (Emax) for each mutant relative to the WT receptor. Data are mean± s.e.m. from at least three independent experiments, performed in triplicates. ns, not significant, ^nsP > 0.01; ^*P < 0.01; ^**P < 0.001; ^***P < 0.0001 (one-way analysis of variance (ANOVA) followed by Dunnett’s test, compared with the response of the WT). For dose-response experiments, data were normalized and analyzed using nonlinear curve fitting for the log (agonist) versus response (three parameters) curves.

[2] = tested on: PTH1R F424A mutant; assay: cAMP accumulation assay (GloSensor), PTH1R F424A; assay type: cell-based, human
Description: as §1, with “After” for “Human embryonic kidney 293 T (HEK293T, ATCC: CRL-1573) cells were transfected with a plasmid mixture consisting of pcDNA3.1-flag-PTH1R (WT or mutants) and the cAMP biosensor GloSensor-22F (Promega) at a ratio of 2:1 (see Supplementary Table 7 for a list of primers used in this study). After”
Statistical analyses were performed on at least three individual datasets and analysed using GraphPad Prism software. […] Data are mean± s.e.m. from at least three independent experiments, performed in triplicates. ns, not significant, ^nsP > 0.01; ^*P < 0.01; ^**P < 0.001; ^***P < 0.0001 (one-way analysis of variance (ANOVA) followed by Dunnett’s test, compared with the response of the WT). For dose-response experiments, data were normalized and analyzed using nonlinear curve fitting for the log (agonist) versus response (three parameters) curves.

[3] = biological target: T2, PTH1R Q440A mutant (Homo sapiens, UniProt Q03431, Q440A); assay: cAMP accumulation assay (GloSensor), PTH1R Q440A; assay type: cell-based
T2 construct: a flag-tag was fused to the N terminal of full-length PTH1R (WT or mutant); expressed in transfected cells; host or cells: HEK293T
T2 sequence (Q03431 27-593 Q440A): T1 sequence (Q03431 27-593 Y191A) with A165Y, Q414A
Description: as §1, §2

Substance | span (from the WT) ([1]; PTH1R Y1911.43A, replicate 1) | ΔpEC50 (from the WT) ([1]; PTH1R Y1911.43A, replicate 1) | span (from the WT) ([1]; PTH1R Y1911.43A, replicate 2) | ΔpEC50 (from the WT) ([1]; PTH1R Y1911.43A, replicate 2) | span (from the WT) ([1]; PTH1R Y1911.43A, replicate 3) | ΔpEC50 (from the WT) ([1]; PTH1R Y1911.43A, replicate 3) | ΔpEC50±SEM [1] | ΔpEC50 (from the WT) ([1]; replicate 1) | ΔpEC50 (from the WT) ([1]; replicate 2) | ΔpEC50 (from the WT) ([1]; replicate 3) | Span±SEM [1] | span (from the WT) ([2]; PTH1R F4246.56A, replicate 1) | ΔpEC50 (from the WT) ([2]; PTH1R F4246.56A, replicate 1) | span (from the WT) ([2]; PTH1R F4246.56A, replicate 2) | ΔpEC50 (from the WT) ([2]; PTH1R F4246.56A, replicate 2) | span (from the WT) ([2]; PTH1R F4246.56A, replicate 3) | ΔpEC50 (from the WT) ([2]; PTH1R F4246.56A, replicate 3) | ΔpEC50±SEM [2] | ΔpEC50 (from the WT) ([2]; replicate 1) | ΔpEC50 (from the WT) ([2]; replicate 2) | also measured
H-AVAEIQLMHQRAKWIQDARRRAFLHKLIAEIHTAEI-OH [LA-PTH, long-acting PTH analog, modified PTH/PTHrP hybrid] | 133.3 | -0.163 | 153.3 | -0.013 | 159.2 | -0.095 | -0.09±0.04 | -0.163 | -0.013 | -0.095 | 148.60±7.84 | 141.3 | -1.04 | 117.4 | -1.083 | 173.2 | -1.36 | -1.16±0.1 | -1.04 | -1.083 | ΔpEC50 (from the WT) ([2]; replicate 3): -1.36; span (from the WT) ([3]; PTH1R Q4407.38A, replicate 1): 337.5; ΔpEC50 (from the WT) ([3]; PTH1R Q4407.38A, replicate 1): -0.045; span (from the WT) ([3]; PTH1R Q4407.38A, replicate 2): 279.8; ΔpEC50 (from the WT) ([3]; PTH1R Q4407.38A, replicate 2): -0.009; span (from the WT) ([3]; PTH1R Q4407.38A, replicate 3): 250.7; ΔpEC50 (from the WT) ([3]; PTH1R Q4407.38A, replicate 3): 0.015; ΔpEC50±SEM [3]: -0.01±0.02; ΔpEC50 (from the WT) ([3]; replicate 1): -0.045; ΔpEC50 (from the WT) ([3]; replicate 2): -0.009; ΔpEC50 (from the WT) ([3]; replicate 3): 0.015; Span±SEM [3]: 289.33±25.51
H-AVSEHQLLHDKGKSIQDLRRRELLEKLL-{Aib}-KLHTA-NH2 [ABL, Abaloparatide, an analog of PTHrP, short-acting PTH1R agonist] | 197.4 | -2.59 | 251.3 | -2.509 | 242 | -2.365 | -2.49±0.07 | -2.59 | -2.509 | -2.365 | 230.23±16.63 | 148.5 | -1.943 | 140.3 | -2.006 | 170.8 | -2.077 | -2.01±0.04 | -1.943 | -2.006 | ΔpEC50 (from the WT) ([2]; replicate 3): -2.077; Span±SEM [2]: 153.20±9.11; span (from the WT) ([3]; PTH1R Q4407.38A, replicate 1): 252.6; ΔpEC50 (from the WT) ([3]; PTH1R Q4407.38A, replicate 1): -1.026; span (from the WT) ([3]; PTH1R Q4407.38A, replicate 2): 278.7; ΔpEC50 (from the WT) ([3]; PTH1R Q4407.38A, replicate 2): -0.991; span (from the WT) ([3]; PTH1R Q4407.38A, replicate 3): 338; ΔpEC50 (from the WT) ([3]; PTH1R Q4407.38A, replicate 3): -1.125; ΔpEC50±SEM [3]: -1.05±0.04; ΔpEC50 (from the WT) ([3]; replicate 1): -1.026; ΔpEC50 (from the WT) ([3]; replicate 2): -0.991; ΔpEC50 (from the WT) ([3]; replicate 3): -1.125; Span±SEM [3]: 289.77±25.27
H-SVSEIQLMHNLGKHLNSMERVEWLRKKLQDVHNF-OH [PTH, Teriparatide, human PTH 1-34, long-acting peptide agonist of PTH1R] | 132.4 | -0.995 | 179.6 | -0.805 | 268.7 | -0.706 | -0.84±0.08 | -0.995 | -0.805 | -0.706 | 164.77±14.05 | 181.9 | -1.332 | 192.6 | -1.492 | 166.2 | -1.466 | -1.43±0.05 | -1.332 | -1.492 | ΔpEC50 (from the WT) ([2]; replicate 3): -1.466; Span±SEM [2]: 143.97±16.16; span (from the WT) ([3]; PTH1R Q4407.38A, replicate 1): 372.2; ΔpEC50 (from the WT) ([3]; PTH1R Q4407.38A, replicate 1): -0.177; span (from the WT) ([3]; PTH1R Q4407.38A, replicate 2): 273.2; ΔpEC50 (from the WT) ([3]; PTH1R Q4407.38A, replicate 2): -0.116; span (from the WT) ([3]; PTH1R Q4407.38A, replicate 3): 248; ΔpEC50 (from the WT) ([3]; PTH1R Q4407.38A, replicate 3): -0.201; ΔpEC50±SEM [3]: -0.16±0.03; ΔpEC50 (from the WT) ([3]; replicate 1): -0.177; ΔpEC50 (from the WT) ([3]; replicate 2): -0.116; ΔpEC50 (from the WT) ([3]; replicate 3): -0.201; Span±SEM [3]: 297.80±37.90
